Results taken from US20220144812A1, “QUINOLINE DERIVATIVES AND THEIR USE FOR THE TREATMENT OF CANCER” (Epizyme, Inc., priority 2019, published 2022).

What follows are molecules tested on H3K18Ac in HB-CLS-2 cells (assay: H3K18AC in-cell western (ICW) assay). Details: H3K18Ac in-cell western, HB-CLS-2 cells; read-out: CREBBP ICW IC50.
Type: cell-based
Description: The following example describes methods and materials relating to an H3K18AC in-cell western assay. IC50 values (micromolar (μM)) are summarized in Table 1, Table 2, and Table 3 under the column labeled: “CREBBP ICW IC50 (micromolar).”
MATERIALS: HB-CLS-2 cell line, DMEM: Ham's F12 medium (1:1 mixture), penicillin-streptomycin, heat inactivated fetal bovine serum, D-PBS, Odyssey blocking buffer, 800CW goat anti-rabbit IgG (H+L) antibody, Licor Odyssey CLx Infrared Scanner, H3K18Ac rabbit monoclonal antibody. DRAQS fluorescent probe solution (5 mM), and 100% methanol were commercially available. HB-CLS-2 adherent cells were maintained in complete growth medium (DMEM: Ham's F12 supplemented with 10% v/v heat inactivated fetal bovine serum) and cultured at 37° C. under 5% CO2.
METHOD: Cell Treatment, ICW for detection of H3K18Ac and DNA content. HB-CLS-2 cells were seeded in assay medium (DMEM: Ham's F12 supplemented with 10% v/v heat inactivated fetal bovine serum and 1% Penicillin/Streptomycin) at a concentration of 80,000 cells per mL in a Poly-D-Lysine coated 384-well culture plates at 50 μL per well. Plates were incubated at room temperature for 30 minutes and then incubated at 37° C., 5% CO2 for additional 16-24 hours. Compounds and DMSO normalization were then added directly to the plates using a D300 Digital Dispenser and returned to the incubator at 37° C., 5% CO2 for 2 hrs. After the incubation, the contents of the plates were discarded into the appropriate waste stream and blotted on laboratory tissue to remove residual liquid. 90 μL per well of 100% ice cold methanol was added to the plates and incubated at room temperature for 15 minutes. Then methanol was then discarded into the appropriate waste stream and the plates again blotted on laboratory tissue to remove residual liquid. Plates were transferred to a Biotek 405 plate washer and washed 3 times with 100 μL per well of wash buffer (1X PBS containing 0.1% Triton X-100 (v/v)). Next, 50 μL per well of Odyssey blocking buffer with 0.1% Tween 20 (v/v) was added to each plate and incubated for 1 hour at room temperature. Blocking buffer was removed and 20 μL of primary antibody were added (α-H3K18Ac diluted 1:800 in Odyssey buffer with 0.1% Tween 20 (v/v)) and plates were incubated overnight (16 hours) at 4° C. Plates were washed 5 times with 100 μL per well of wash buffer. Next 20 μL per well of secondary antibody was added (1:400 800CW goat anti-rabbit IgG (H+L) antibody, 1:2000 DRAQ5 in Odyssey buffer with 0.1% Tween 20 (v/v)) and incubated for 1 hour at room temperature. The plates were washed 3 times with 100 μL per well wash buffer then 3 times with 100 μL per well of water. Plates were allowed to dry at room temperature then imaged on the Licor Odyssey CLx machine which measured integrated intensity at 700 nm and 800 nm wavelengths. Both 700 and 800 channels were scanned.

| SMILES | IC50 [µM] |
| --- | --- |
| CCn1ncc(CN(C)C(=O)c2cc(-c3ccc(OCCCNC)c(C)n3)nc3ccc(Cl)cc23)c1C [Compound 430] | 0.69 |
| CCn1ncc(CN(C)C(=O)c2nc(-c3ccc4ccn(C(=O)OC(C)(C)C)c4c3)nc3ccc(Cl)cc23)c1C [Compound 234] | 20 |
| CCn1ncc(CN(C)C(=O)c2cc(-c3cn(C)c(C)n3)nc3cc(Cl)ccc23)c1C [Compound 203] | 20 |
| CCn1ncc(CN(C)C(=O)c2cc(-c3cnc(NCCNC)cn3)nc3ccc(Cl)cc23)c1C [Compound 424] | 0.4 |
| CCn1ncc(CN(C)C(=O)c2nc(-c3cnn(CC4CCCN4)c3)nc3ccc(Cl)cc23)c1C (stereo not drawn) [Compound 204] | 20 |
| CCn1ncc(CN(C)C(=O)c2nc(C3CCCN3)nc3ccc(Cl)cc23)c1C (stereo not drawn) [Compound 207] | 20 |
| CCn1ncc(CN(C)C(=O)c2nc(-c3ccc(OC4CCNCC4)c(OC)c3)nc3ccc(Cl)cc23)c1C [Compound 428] | 1.4 |
| CCn1ncc(CN(C)C(=O)c2cc(N3CCN(C(C)=O)CC3)nc3ccc(Cl)cc23)c1C [Compound 244] | 20 |
| CCn1ncc(CN(C)C(=O)c2nc(-c3cnn(CCN(C)C(=O)OC(C)(C)C)c3)nc3ccc(Cl)cc23)c1C [Compound 197] | 20 |
| CCn1ncc(CN(C)C(=O)c2nc(-c3cnn(CCC(O)CNC)c3)nc3ccc(Cl)cc23)c1C (stereo not drawn) [Compound 223] | 20 |
| CCn1ncc(CN(C)C(=O)c2cc(N3CCNCC3)nc3ccc(Cl)cc23)c1C [Compound 246] | 20 |
| CCn1ncc(CN(C)C(=O)c2cc(N3CCN(C(=O)OC(C)(C)C)CC3)nc3ccc(Cl)cc23)c1C [Compound 205] | 20 |
| CCn1nc(C)c(CN(C)C(=O)c2nc(-c3ccccc3Cl)nc3ccc(Cl)cc23)c1C [Compound 201] | 20 |
| CCn1ncc(CN(C)C(=O)c2cc(-c3ccc(OCCNC(C)=O)c(C)n3)nc3ccc(Cl)cc23)c1C [Compound 431] | 0.84 |
| CCn1ncc(CN(C)C(=O)c2cc(N3CCN(C)CC3)nc3ccc(Cl)cc23)c1C [Compound 214] | 20 |
| CCn1ncc(CN(C)C(=O)c2cc(-c3ccc(N(C)CCN(C)C)c(C)n3)nc3ccc(Cl)cc23)c1C [Compound 420] | 0.74 |

Results, then the molecule that gave them:

| IC50 [µM] | SMILES |
| --- | --- |
| 20 | CCn1ncc(CN(C)C(=O)c2nc(-c3cnn(CCC(O)CN4CCCC4)c3)nc3ccc(Cl)cc23)c1C (stereo not drawn) [Compound 249] |
| 0.19 | CCn1ncc(CN(C)C(=O)c2cc(-c3ccc(NCCNC)c(C)n3)nc3ccc(COC)cc23)c1C [Compound 427] |
| 0.53 | CCc1cc(CNC)cc(-c2nc(C(=O)N(C)Cc3cnn(CC)c3C)c3cc(Cl)ccc3n2)c1 [Compound 423] |
| 0.15 | CCc1nc(-c2cc(C(=O)N(C)Cc3cnn(CC)c3C)c3cc(Cl)ccc3n2)ccc1NCCNC [Compound 425] |
| 0.26 | CCn1ncc(CN(C)C(=O)c2nc(-c3cc(C(=O)NC4CC4)n(C)n3)nc3ccc(Cl)cc23)c1C [Compound 421] |
| 20 | CCn1ncc(CN(C)C(=O)c2nc(-c3ccc(OCCNC(=O)OC(C)(C)C)c(F)c3)nc3ccc(Cl)cc23)c1C [Compound 252] |
| 0.6 | CCn1ncc(CN(C)C(=O)c2nc(-c3cc(N)c4nc[nH]c4c3)nc3ccc(Cl)cc23)c1C [Compound 422] |
| 20 | CCn1ncc(CN(C)C(=O)c2nc(-c3ccc(OCCN(C)C(=O)OC(C)(C)C)c(F)c3)nc3ccc(Cl)cc23)c1C [Compound 251] |
| 0.16 | CCn1ncc(CN(C)C(=O)c2cc(-c3ccc(NCCNC)c(C)n3)nc3ccc(C)cc23)c1C [Compound 429] |

Same assay, conditions: H3K18Ac in-cell western; read-out: CREBBP ICW IC50

| IC50 [µM] | SMILES |
| --- | --- |
| 20 | CCn1ncc(CN(C)C(=O)c2nc(N3CCCNCC3)nc3ccc(Cl)cc23)c1C [Compound 187] |
| 20 | CCn1ncc(CN(C)C(=O)c2nc(N3CCN(C(C)=O)CC3)nc3ccc(Cl)cc23)c1C [Compound 195] |
| 20 | CCn1ncc(CN(C)C(=O)c2nc(-c3cnn(CCCN(C)C(=O)OC(C)(C)C)c3)nc3ccc(Cl)cc23)c1C [Compound 188] |
| 20 | CCn1ncc(CN(C)C(=O)c2nc(-c3cccc(Cl)c3)nc3cc(N4CCOCC4)ccc23)c1C [Compound 191] |
| 20 | CCn1ncc(CN(C)C(=O)c2nc(-c3cnn(CCCNC(=O)OC(C)(C)C)c3)nc3ccc(Cl)cc23)c1C [Compound 189] |

The molecules below were run against T1, CREBBP (1084-1701) (Homo sapiens, UniProt Q92793) (assay: Biochemical assay for CREBBP (1084-1701), SAMDI). Details: SAMDI, read-out: CREBBP Biochemistry IC50.
T1 construct: measured in the following biochemical assay using CREBBP (1084-1701); purchased
Description: The following example describes materials and methods relating to a biochemical assay for CREBBP (1084-1701). IC50 values (micromolar (μM)) are summarized in Table 1, Table 2, and Table 3 under the column labeled: “CREBBP Biochemistry IC50 (micromolar).”
MATERIALS: Reagents 1M Tris pH 8.0, Tween 20 10%, DTT, bovine serum gelatin (BSG) 2%, Peptide #233 (biotin-H3 11-25, K14R, K23R), Acetyl-CoA, CREBBP (1084-1701), formic acid (100%), and sodium bicarbonate were commercially available.
METHODS: The effect of compounds was measured in the following biochemical assay using CREBBP (1084-1701). Enzyme mix 30 μL per well was added using a Multi-drop to wells of prepared Compound Stock plate. The enzyme was incubated in the Compound Stock plate for 30 minutes at room temperature. Substrate mix, 20 μL per well, was added to Compound Stock plate using a Multi-drop. The plate was covered and incubate 30 minutes at room temperature. The reaction was stopped with addition of 5 μL per well of 5% formic acid using a Multi-drop. The plate was Incubated for 30 minutes at room temperature. The reaction mixture was neutralized with addition of 5 μL per well of 10% sodium bicarbonate using a Multi-drop. The plate was Incubated for 35 minutes at room temperature. The reaction mixture was Transferred 2.5 μL per well to a SAMDI biochip. The plate was Incubated for 60 minutes at room temperature. The samples were washed, dried, and matrix applied to SAMDI biochip. The SAMDI biochip was then read on the mass spectrometer.

T1 sequence (Q92793 1084-1701): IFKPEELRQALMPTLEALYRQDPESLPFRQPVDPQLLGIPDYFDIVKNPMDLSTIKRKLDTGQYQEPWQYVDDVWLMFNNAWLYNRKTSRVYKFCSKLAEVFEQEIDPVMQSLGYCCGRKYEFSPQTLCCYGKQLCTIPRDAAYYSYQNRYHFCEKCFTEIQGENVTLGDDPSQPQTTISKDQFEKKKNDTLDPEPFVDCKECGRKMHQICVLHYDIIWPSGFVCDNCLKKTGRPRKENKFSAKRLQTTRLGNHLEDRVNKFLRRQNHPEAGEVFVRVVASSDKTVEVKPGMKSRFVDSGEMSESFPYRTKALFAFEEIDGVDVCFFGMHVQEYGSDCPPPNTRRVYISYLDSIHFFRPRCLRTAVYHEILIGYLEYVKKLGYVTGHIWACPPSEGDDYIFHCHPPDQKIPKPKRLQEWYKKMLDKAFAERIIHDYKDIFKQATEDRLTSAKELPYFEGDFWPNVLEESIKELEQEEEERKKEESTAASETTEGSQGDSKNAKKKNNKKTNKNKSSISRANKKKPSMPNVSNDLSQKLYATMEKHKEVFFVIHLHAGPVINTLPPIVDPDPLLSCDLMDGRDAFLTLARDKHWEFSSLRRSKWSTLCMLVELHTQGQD

| IC50 [µM] | SMILES |
| --- | --- |
| 29 | CCn1ncc(CN(C)C(=O)c2nc(-c3cnn(C)c3)nc3ccc(Cl)cc23)c1C [Compound 339] |
| 72 | CCn1ncc(CN(C)C(=O)c2cc(-c3ncccc3OC)nc3ccc(Cl)cc23)c1C [Compound 345] |
| 19 | CCn1ncc(CN(C)C(=O)c2cc(-c3cccc(Cl)c3)nc3ccc(OC)cc23)c1C [Compound 273] |
| 89 | CCn1nnc(CN(C)C(=O)c2cc(-c3ccccc3Cl)nc3ccc(Cl)cc23)c1C [Compound 291] |
| 152 | CCn1ncc(CN(C)C(=O)c2nc(-c3ccccn3)nc3cc(Cl)ccc23)c1C [Compound 327] |
| 0.014 | CCn1ncc(CN(C)C(=O)c2nc(-c3cccc(Cl)c3)nc3ccc(C)cc23)c1C [Compound 275] |
| 51 | CCn1ncc(CN(C)C(=O)c2cc(-c3ccc[nH]3)nc3ccc(Cl)cc23)c1C [Compound 320] |
| 14 | CN(Cc1cc2n(n1)CCC2)C(=O)c1cc(-c2cccc(Cl)c2)nc2ccc(Cl)cc12 [Compound 271] |
| 14 | CCn1ncc(CN(C)C(=O)c2cc(-c3ccccc3Cl)nc3c(F)cccc23)c1C [Compound 365] |
| 26 | CCn1ncc(CN(C)C(=O)c2cc(-c3ccccc3Cl)nc3c(Cl)cccc23)c1C [Compound 269] |
| 48 | CCn1ncc(CN(C)C(=O)c2nc(-c3ccccc3Cl)nc3ccc(C#N)cc23)c1C [Compound 310] |
| 50 | CCn1nnc(CN(C)C(=O)c2nc(-c3ccccc3Cl)nc3ccc(Cl)cc23)c1C [Compound 292] |
| 120 | CCOc1ccc2nc(-c3cccc(Cl)c3)cc(C(=O)N(C)Cc3cnn(CC)c3C)c2c1 [Compound 319] |
| 18 | CCn1ncc(CN(C)C(=O)c2cc(-c3cccc(Cl)c3)nc3ccc(N)cc23)c1C [Compound 311] |
| 32 | CCn1ncc(CN(C)C(=O)c2cc(-c3ccccc3Cl)nc3ccccc23)c1C [Compound 376] |
| 176 | CCn1ncc(CN(C)C(=O)c2cc(-c3ccccc3)nc3ccccc23)c1C [Compound 343] |
| 32 | CCn1ncc(CN(C)C(=O)c2cc(-c3ccccc3OC)nc3ccccc23)c1C [Compound 351] |
| 0.67 | CCn1ncc(CN(C)C(=O)c2nc(-c3ccccc3Cl)nc3ccc(C)cc23)c1C [Compound 370] |
| 12 | CCn1ncc(CN(C)C(=O)c2cc(-c3cncc(Cl)c3)nc3ccc(Cl)cc23)c1C [Compound 341] |
| 45 | CCn1ncc(CN(C)C(=O)c2nc(-c3ccccc3Cl)nc3cc(Cl)ccc23)c1C [Compound 344] |
| 5.4 | CCn1ncc(CN(C)C(=O)c2nc(-c3ccccn3)nc3ccc(Cl)cc23)c1C [Compound 262] |
